Experimental data: PubChem BioAssay (NCI)
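Each compound was tested at five concentrations against cells in 96-well plates for 48 hours. GI50 marks 50% less growth. TGI marks complete inhibition of growth.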

How the values were obtained:
Test in all cases: inhibition of tumour cell growth, NCI panel, 48 h
LOX IMVI melanoma = system: LOX IMVI melanoma
DU-145 prostate = system: DU-145 prostate
OVCAR-8 ovarian = system: OVCAR-8 ovarian
COLO 205 colon = system: COLO 205 colon
HS 578T breast = system: HS 578T breast
SF-539 CNS = system: SF-539 CNS
TK-10 renal = system: TK-10 renal
BT-549 breast = system: BT-549 breast
SR leukemia = system: SR leukemia
SF-295 CNS = system: SF-295 CNS
CAKI-1 renal = system: CAKI-1 renal
CCRF-CEM leukemia = system: CCRF-CEM leukemia
NCI-H23 lung = system: NCI-H23 lung
SK-MEL-2 melanoma = system: SK-MEL-2 melanoma
KM12 colon = system: KM12 colon
RXF 393 renal = system: RXF 393 renal
UO-31 renal = system: UO-31 renal
MDA-MB-435 = system: MDA-MB-435
NCI-H522 lung = system: NCI-H522 lung
PC-3 prostate = system: PC-3 prostate
K-562 leukemia = system: K-562 leukemia
SK-MEL-5 melanoma = system: SK-MEL-5 melanoma
A549 NSCLC = system: A549 NSCLC
UACC-257 melanoma = system: UACC-257 melanoma
T-47D breast = system: T-47D breast
EKVX NSCLC = system: EKVX NSCLC
NCI-H226 lung = system: NCI-H226 lung
A498 renal = system: A498 renal
RPMI-8226 leukemia = system: RPMI-8226 leukemia
786-0 renal = system: 786-0 renal
IGROV1 ovarian = system: IGROV1 ovarian
SN12C renal = system: SN12C renal
OVCAR-5 ovarian = system: OVCAR-5 ovarian
MALME-3M melanoma = system: MALME-3M melanoma
NCI-H460 lung = system: NCI-H460 lung
HT29 colon = system: HT29 colon
HOP-62 NSCLC = system: HOP-62 NSCLC
UACC-62 melanoma = system: UACC-62 melanoma
NCI/ADR-RES ovarian = system: NCI/ADR-RES ovarian
ACHN renal = system: ACHN renal
HCC-2998 colon = system: HCC-2998 colon
SK-OV-3 ovarian = system: SK-OV-3 ovarian
M14 melanoma = system: M14 melanoma
SK-MEL-28 melanoma = system: SK-MEL-28 melanoma
HCT-15 colon = system: HCT-15 colon
HL-60(TB) leukemia = system: HL-60(TB) leukemia
MOLT-4 leukemia = system: MOLT-4 leukemia
SF-268 CNS = system: SF-268 CNS
OVCAR-3 ovarian = system: OVCAR-3 ovarian
HCT-116 colon = system: HCT-116 colon
HOP-92 NSCLC = system: HOP-92 NSCLC
U251 CNS = system: U251 CNS
SNB-19 CNS = system: SNB-19 CNS
SW-620 colon = system: SW-620 colon
SNB-75 CNS = system: SNB-75 CNS
OVCAR-4 ovarian = system: OVCAR-4 ovarian
MDA-MB-231 breast = system: MDA-MB-231 breast
MCF7 breast = system: MCF7 breast

Q: How did the GI50 (LOX IMVI melanoma) turn out when CCCCN(CCCC)CC(O)c1ccc(OCc2ccccc2)c2ccccc12 (stereo unspecified) was run?
A: 1940 nM

Q: What about the TGI (LOX IMVI melanoma) of the same molecule?
A: 4.78 µM

Q: And the GI50 (DU-145 prostate)?
A: 8.63 µM

Q: What about the TGI (DU-145 prostate) of the same molecule?
A: 22.6 µM

Q: What about the GI50 (OVCAR-8 ovarian) of the same molecule?
A: 11 µM

Q: What about the TGI (OVCAR-8 ovarian) of the same molecule?
A: 24.4 µM

Q: And the GI50 (COLO 205 colon)?
A: 2980 nM

Q: And the TGI (COLO 205 colon)?
A: 12.1 µM

Q: And the GI50 (HS 578T breast)?
A: 4.99 µM

Q: What about the TGI (HS 578T breast) of the same molecule?
A: 30.9 µM

Q: And the GI50 (SF-539 CNS)?
A: 5.09 µM

Q: And the TGI (SF-539 CNS)?
A: 17 µM

Q: And the GI50 (TK-10 renal)?
A: 2150 nM

Q: And the TGI (TK-10 renal)?
A: 5.24 µM

Q: And the GI50 (BT-549 breast)?
A: 5.32 µM

Q: What about the TGI (BT-549 breast) of the same molecule?
A: 17.2 µM

Q: And the GI50 (SR leukemia)?
A: 2750 nM

Q: What about the TGI (SR leukemia) of the same molecule?
A: 8.4 µM

Q: And the GI50 (SF-295 CNS)?
A: 3.13 µM

Q: What about the TGI (SF-295 CNS) of the same molecule?
A: 11.6 µM

Q: And the GI50 (CAKI-1 renal)?
A: 1980 nM

Q: And the TGI (CAKI-1 renal)?
A: 10.9 µM

Q: And the GI50 (CCRF-CEM leukemia)?
A: 3.35 µM

Q: What about the TGI (CCRF-CEM leukemia) of the same molecule?
A: 16.3 µM

Q: And the GI50 (NCI-H23 lung)?
A: 3.01 µM

Q: And the TGI (NCI-H23 lung)?
A: 13 µM

Q: And the GI50 (SK-MEL-2 melanoma)?
A: 3.39 µM

Q: What about the TGI (SK-MEL-2 melanoma) of the same molecule?
A: 12 µM

Q: And the GI50 (KM12 colon)?
A: 3.4 µM

Q: And the TGI (KM12 colon)?
A: 19.5 µM

Q: And the GI50 (RXF 393 renal)?
A: 2390 nM

Q: And the TGI (RXF 393 renal)?
A: 4.93 µM

Q: And the GI50 (UO-31 renal)?
A: 974 nM

Q: And the TGI (UO-31 renal)?
A: 7.13 µM

Q: What about the GI50 (MDA-MB-435) of the same molecule?
A: 3.17 µM

Q: What about the TGI (MDA-MB-435) of the same molecule?
A: 14 µM

Q: And the GI50 (NCI-H522 lung)?
A: 1720 nM

Q: What about the TGI (NCI-H522 lung) of the same molecule?
A: 4.37 µM

Q: What about the GI50 (PC-3 prostate) of the same molecule?
A: 2900 nM

Q: And the TGI (PC-3 prostate)?
A: 15.6 µM

Q: What about the GI50 (K-562 leukemia) of the same molecule?
A: 2820 nM

Q: What about the TGI (K-562 leukemia) of the same molecule?
A: 10.4 µM

Q: What about the GI50 (SK-MEL-5 melanoma) of the same molecule?
A: 1880 nM

Q: And the TGI (SK-MEL-5 melanoma)?
A: 3.69 µM

Q: And the GI50 (A549 NSCLC)?
A: 8.45 µM

Q: What about the TGI (A549 NSCLC) of the same molecule?
A: 22.4 µM

Q: What about the GI50 (UACC-257 melanoma) of the same molecule?
A: 5.21 µM

Q: And the TGI (UACC-257 melanoma)?
A: 17.2 µM

Q: And the GI50 (T-47D breast)?
A: 3.74 µM

Q: What about the TGI (T-47D breast) of the same molecule?
A: 14.9 µM

Q: And the GI50 (EKVX NSCLC)?
A: 5.66 µM

Q: What about the TGI (EKVX NSCLC) of the same molecule?
A: 20.2 µM

Q: And the GI50 (NCI-H226 lung)?
A: 4.03 µM

Q: What about the TGI (NCI-H226 lung) of the same molecule?
A: 16.7 µM

Q: And the GI50 (A498 renal)?
A: 3.41 µM

Q: And the TGI (A498 renal)?
A: 14.5 µM

Q: And the GI50 (RPMI-8226 leukemia)?
A: 2220 nM

Q: And the TGI (RPMI-8226 leukemia)?
A: 5.81 µM

Q: What about the GI50 (786-0 renal) of the same molecule?
A: 2560 nM

Q: What about the TGI (786-0 renal) of the same molecule?
A: 6.25 µM

Q: And the GI50 (IGROV1 ovarian)?
A: 1960 nM

Q: What about the TGI (IGROV1 ovarian) of the same molecule?
A: 16.7 µM

Q: And the GI50 (SN12C renal)?
A: 3.25 µM

Q: And the TGI (SN12C renal)?
A: 14.9 µM

Q: And the GI50 (OVCAR-5 ovarian)?
A: 3.86 µM

Q: What about the TGI (OVCAR-5 ovarian) of the same molecule?
A: 16.2 µM

Q: And the GI50 (MALME-3M melanoma)?
A: 2270 nM

Q: What about the TGI (MALME-3M melanoma) of the same molecule?
A: 7.09 µM

Q: What about the GI50 (NCI-H460 lung) of the same molecule?
A: 3.11 µM

Q: And the TGI (NCI-H460 lung)?
A: 10.5 µM

Q: And the GI50 (HT29 colon)?
A: 1520 nM

Q: What about the TGI (HT29 colon) of the same molecule?
A: 4.55 µM

Q: What about the GI50 (HOP-62 NSCLC) of the same molecule?
A: 5.57 µM

Q: What about the TGI (HOP-62 NSCLC) of the same molecule?
A: 19.7 µM

Q: What about the GI50 (UACC-62 melanoma) of the same molecule?
A: 2330 nM

Q: What about the TGI (UACC-62 melanoma) of the same molecule?
A: 11.2 µM

Q: What about the GI50 (NCI/ADR-RES ovarian) of the same molecule?
A: 3.74 µM

Q: And the TGI (NCI/ADR-RES ovarian)?
A: 16 µM

Q: And the GI50 (ACHN renal)?
A: 4.76 µM

Q: And the TGI (ACHN renal)?
A: 18 µM

Q: What about the GI50 (HCC-2998 colon) of the same molecule?
A: 2360 nM

Q: What about the TGI (HCC-2998 colon) of the same molecule?
A: 6.34 µM

Q: What about the GI50 (SK-OV-3 ovarian) of the same molecule?
A: 8.31 µM

Q: And the TGI (SK-OV-3 ovarian)?
A: 22.7 µM

Q: And the GI50 (M14 melanoma)?
A: 3.13 µM

Q: And the TGI (M14 melanoma)?
A: 11.4 µM

Q: And the GI50 (SK-MEL-28 melanoma)?
A: 6.08 µM

Q: And the TGI (SK-MEL-28 melanoma)?
A: 18.8 µM

Q: What about the GI50 (HCT-15 colon) of the same molecule?
A: 2580 nM

Q: What about the TGI (HCT-15 colon) of the same molecule?
A: 7.47 µM

Q: And the GI50 (HL-60(TB) leukemia)?
A: 2510 nM

Q: What about the TGI (HL-60(TB) leukemia) of the same molecule?
A: 8.25 µM

Q: What about the GI50 (MOLT-4 leukemia) of the same molecule?
A: 3.54 µM

Q: What about the TGI (MOLT-4 leukemia) of the same molecule?
A: 16.5 µM

Q: And the GI50 (SF-268 CNS)?
A: 7.07 µM

Q: What about the TGI (SF-268 CNS) of the same molecule?
A: 24.2 µM

Q: What about the GI50 (OVCAR-3 ovarian) of the same molecule?
A: 4.9 µM

Q: What about the TGI (OVCAR-3 ovarian) of the same molecule?
A: 18.3 µM

Q: What about the GI50 (HCT-116 colon) of the same molecule?
A: 2840 nM

Q: And the TGI (HCT-116 colon)?
A: 11.7 µM

Q: And the GI50 (HOP-92 NSCLC)?
A: 1870 nM

Q: What about the TGI (HOP-92 NSCLC) of the same molecule?
A: 6.27 µM

Q: What about the GI50 (U251 CNS) of the same molecule?
A: 4.88 µM

Q: What about the TGI (U251 CNS) of the same molecule?
A: 17.1 µM

Q: And the GI50 (SNB-19 CNS)?
A: 3.79 µM

Q: What about the TGI (SNB-19 CNS) of the same molecule?
A: 16.3 µM

Q: What about the GI50 (SW-620 colon) of the same molecule?
A: 3.32 µM

Q: And the TGI (SW-620 colon)?
A: 14.5 µM

Q: What about the GI50 (SNB-75 CNS) of the same molecule?
A: 3.6 µM

Q: And the TGI (SNB-75 CNS)?
A: 15.8 µM

Q: What about the GI50 (OVCAR-4 ovarian) of the same molecule?
A: 6.22 µM

Q: What about the TGI (OVCAR-4 ovarian) of the same molecule?
A: 17.4 µM

Q: What about the GI50 (MDA-MB-231 breast) of the same molecule?
A: 2280 nM

Q: What about the TGI (MDA-MB-231 breast) of the same molecule?
A: 7.92 µM

Q: And the GI50 (MCF7 breast)?
A: 3.19 µM

Q: And the TGI (MCF7 breast)?
A: 10.9 µM
